What was measured:
[1] = tested on: Flk-1+ cells isolated from day 3.25 Ainv-Notch4 EBs; assay: Cardiac assay of reaggregated Flk-1+ cells from Ainv-Notch4 EBs; format: cell-based
Description: (§1) Sorted cells were reaggregated for 24 hours in StemPro-34 serum-free medium (hwitrogen) containing 2 mM L-glutamine (GIBCO/BRL), transferrin (200 μg/ml), 0.5 mM ascorbic acid and 4.5×10^−4 M MTG at 3×10^5 cells per ml in ultra-low-attachment 24-well plates (Costar). Single aggregates or pools of aggregates were replated in gelatin-coated 96- or 24-well plates containing SternPro with 2 mM L-glutamine for cardiac culture. Following 2 to 4 days of culture the proportion of aggregates containing contracting cells was scored and the number of Troponin T-positive cells was evaluated by flow cytometric analyses. For the aggregated and cardiac cultures, doxycycline (Dox) was used at 0.5 μg/ml and γ-secretase inhibitor X at 5 μM (dissolved in DMSO). The same concentration of DMSO was added to the control cultures. Medium was changed everyday to provide fresh Dox and inhibitor.
To investigate the potential of Notch4 to initiate a cardiogenic program in this early stage of hemangioblast population, Flk-1^+ cells isolated from day 3.25 Ainv-Notch4 EBs were reaggregated for 24 hours in the presence or absence of Dox as described above. The resulting aggregates were then cultured in gelatin-coated microliter wells containing serum-free media (hereafter referred to as cardiac cultures). These conditions efficiently support cardiomyooyte development from cardiogenic mesoderm (Kouskoff et al. (2005) Proc. Natl. Acad. Sci. 102:13170-13175). Both single aggregates and pools of aggregates were cultured for 2-3 days. Following this maturation step, the cultures of single aggregates were scored for the presence of contracting cells indicative of cardiomyocyte differentiation. None of the aggregates generated in the absence of Dox (−Dox/−Dox) contained contracting cells (FIG. 3A). Rather, these aggregates underwent heniatopoietio differentiation as indicated by the development of hemoglobinized erythroid cells, an observation consistent with the hemangioblast potential of this population. […] (FIG. 3B, right panel). Few cTnT cells were atected among the adhesive cells generated from non-induced aggregates (FIG. 3B, left panel). Cultures of the pooled induced aggregates generated extensive areas of contracting cells. Contracting cells were not detected in the cultures of the non-induced aggregates. Flow cytometric analysis of the differentiated progeny from pooled inducedaggregates confirmed the dramatic cardiogenic effect of Notch4 as greater than 60% of the entire cell population expressed cTnT after 2 days in the cardiac cultures (+Dox/−Dox, FIG. 3C). Less than 1% of the cells generated from the non-induced population expressed cTnT (−Dox/−Dox, FIG. 3C). […]

[2] = tested on: posterior primitive streak explants; assay: E7.5 primitive streak explant cultures; format: cell-based, mouse; details: inhibitor 10 μM; 5 days of culture
Description: Female swiss webster mice (Taconic) were mated with male GFP-Bry^+/− mice described by Huber et al., (2004) Nature 432:625-630. Pregnant mice were sacrificed 7.5 days after mating and the embryos were isolated. Dissections were performed under a Leica MZFLIII fluorescence dissecting stereomicrosope to visualize the GFP expression in the primitive streak (PS). Using tungsten needles (Fine Science tools), the PS of GFP-Bry^+/− embryos were isolated and separated into posterior and anterior regions. Individual anterior and posterior PS pieces were plated in gelatin-coated 96-well dishes with medium for cardiac cultures. γ-Secretase inhibitor at 10 μM or a corresponding volume of DMSO was included in the cultures. Medium was changed everyday to provide fresh inhibitor. After 3-5 days, the explants were scored for the presence of contracting foci and harvested for gene expression analysis.
When isolated PPS are plated in the cardiac cultures contracting cardiomyocytes can be detected within 3 to 5 days. To investigate whether Notch signalling is required for the development of the cardiomyocyte lineage from embryo-derived tissues, PPSs were cultured in the presence or absence of γ-secretase inhibitor and then analyzed for the development of contracting cells and for the expression of cardiac genes. […]

[3] = tested on: GFP-Bry+/Flk-1- fraction from GFP-Bry/Ainv-Notch4 ES cells; assay: Cardiac assay of reaggregated GFP-Bry+/Flk-1- cells; format: cell-based
Description: as §1
Cardiac potential has been mapped to the Flk-1^− fraction of brachytury-expressing mesoderm (GFP-Bry^+/Flk-1^−) at early singes of EB development (Kouskoff et al., supra). To investigate the role of Notch4 during cardiac differentiation of this mesoderm, the GFP cDNA was targeted to the brachyury locus of Ainv cells to enable the overexpression of Notch4 in the GFP-Bry^+/Flk-1^− population. The GFP-Bry^+/Flk-1^− fraction was isolated from clay 3.25 EBs derived from the GFP-Bry/Ainv-Notch4 ES cells, reaggregated for 1 day and the resultant aggregates plated in cardiac cultures. γ-Secretase inhibitor or Dox was added to the cells either during the reaggregation step or to the cardiac cultures to further define the stage specific effects of Notch4. Three days following differentiation of the aggregates in the cardiac cultures, the proportion of cTnT-positive cells and the expression of cardiac genes were analyzed (FIG. 7). […] As expected, this population expressed the spectrum of cardiac genes. Induction of Notch4 during the reaggregation stage (+Dox/−Dox) enhanced cardiomyocyte development over that observed in the control cultures (FIG. 7C). […]

[4] = tested on: Flk-1+ cells from Bry-GFP ES cells on OP9-DL1 cells; assay: Culture of Flk-1+ cells on Dll-1 expressing OP9 stromal cells; format: cell-based; details: inhibitor 5 μM; 3 days of culture
Description: OP9-DL1 cells described by Schmitt et al. (2004) Nat. Immunol. 5:410-417 were cultured in a 24-well plate and irradiated before use. Day 3.25 EB-derived Flk-1^+ cells (3×10^4 per well) were seeded onto OP9 cells in the same medium used for the cardiac cultures. γ-Secretase inhibitor X (dissolved in DMSO) at 5 μM or a corresponding volume of DMSO was included in the cultures. Medium was changed everyday to supply fresh inhibitor. After 3 days of culture, the cells were harvested and subjected to flow oytometric analysis to determine the number of Troponin T-positive cells.
Following 3 days of culture, areas of contracting cells were detected on the OP9 stromal cells, with approximately 24% of the cells expressing cTnT (FIG. 6A).

[5] = tested on: BL-CFC in day 3.25 Flk-1+ cells; assay: Blast colony (BL-CFC) assay; format: cell-based
Description: The blast and hematopoietic colony assays were performed as described Kennedy et al., (2003) Metods Enzymol. 365:39-59. Dox was added at 0.5 μg/ml to induce Notch4 expression and y-secretase inhibitor X (L685,458, Calbiochem) at 5 μM to blook Notch signaling in the:blast colony culture. To generate mixed hemangioblastkardiac colonies, blast colony growth was initiated in standard blast colony cultures containing Dox for 24 hours. The developing colonies were then washed from with methycellulose with IMDM containing 10% FCS to remove Dox. The colonies were recultured in blast colony metycellulose supplemented with Erythropoietin (2 U/ml) and IL-3 (1% conditioned medium). Mixed colonies containing an inner cardiac core surrounded by outer hematopoietic cells were picked for analysis at day 7.
To determine if the BL-CFC is the target of the Notch4-induced fate change, day 3.25 Flk-1^+ cells were cultured in the BL-CFC assay in the presence or absence of Dox. In the absence of Dox, this population generated typical blast colonies that appeared as grape-like clusters of cells. When cultured in the presence of Dox, these cells formed compact colonies of tightly packed cells that were easy to distinguish from the blast colonies (FIG. 5A). The number of these compact colonies was similar to the number of blast cell colonies that developed in the non-induced cultures (FIG. 5B). […] None of these colonies expressed gata-1. As shown previously, blast colonies expressed the endothelial genes as well as gata-1. […] With extended time in the methylcellulose cultures, some of the compact colonies generated contracting cells. To quantify the proportion of colonies that generated contracting cells, individual colonies were picked at day 7 of culture and replated in microtiter wells in the cardiac cultures. Approximately 70% of the compact colonies generated contracting cells between 2 and 7 days of culture. The contracting cells expressed cTnT, confirming that they were cardiomyocytes (FIG. 5D).

Ainv-Notch4 ES cells = assay: Flow cytometric analysis for HA-Notch4 expression after induction; format: cell-based; details: one day following Dox 0.5 μg/ml induction
Description: Dissociated cells were incubated with biotinylated mAbs (against Flk-1, VE-cad, or CD41) in PBS containing 10% FCS on ice for 30 min. The cells were then washed once and incubated with streptavidin-PE-Cy5 (BD Pharmingen) for another 30 minutes on ice. Following an additional two washes, the cells were analyzed on a FACSCalibur flow cytometer (BectonDicldnson) or sorted on a Moflo cell sorter (Cytomation). For Troponin T or HA staining, cells were fixed in 4% paraformaldehyde (PFA) for 30 minutes and then incubated in a permeabilizing buffer consisting of PBS with 10% FCS and 0.1% saponin (Sigma) for 10 minutes. Following fixing and permeabilization, the cells were washed twice and incubated with an anti-Troponin T (unconjugated mouse antibody, Lab Vision) or anti-HA (conjugated with biotin, Covance) antibody for 30 minutes. After two washes, the cells were incubated with a secondary APC-conjugated goat anti-mouse antibody (for Troponin T antibody) or streptavidin-PE-Cy5 (for biotinylated HA antibody) for 30 minutes. Finally, the cells were washed twice with permeabilizing buffer and then twice with buffer without saponin. […] One day following Dox (0.5 μg/ml) induction, 90% of Ainv-Notch4 ES cells expressed Notch4 as determined by flow cytometric analysis for HA expression (FIG. 2A).

[6] = +Dox+inhibitor/-Dox, inhibitor 5 μM during the reaggregation step
[7] = inhibitor during the aggregation stage (+I/-I)

For CC(C)C[C@H](NC(=O)[C@H](Cc1ccccc1)C[C@@H](O)[C@H](Cc1ccccc1)NC(=O)OC(C)(C)C)C(=O)N[C@@H](Cc1ccccc1)C(N)=O [γ-secretase inhibitor], the “expression of cardiac genes” value [1, 6] was “inhibited”, the “generation of contracting cells” value [1, 6] was “inhibited” and the “PS explants that generated contracting cells” value [2] was “Less than 10%”. The “expression of cardiac genes in explants” value [2] was “inhibited in some but not all of the explants”, the “proportion of cTnT-expressing population compared to control” value ([3]; inhibitor added to the cardiac cultures (-I/+I)) was “modestly increased” and the “development of cTnT-positive contracting cells” value [3, 7] was “suppressed”. For the same compound, the “expression levels of the cardiac genes” value [3, 7] was “reduced”, the “cardiomyocyte development (cTnT+ cells)” value [4] was “inhibited” and the “colony type (blast vs compact colonies)” value ([5]; inhibitor 5 μM together with Dox 0.5 μg/ml, 4 days) was “reversal back to blast colonies”.

In the case of C[C@H]1c2cccc(O)c2C(=O)C2=C(O)[C@]3(O)C(=O)C(C(N)=O)=C(O)[C@@H](N(C)C)[C@@H]3[C@@H](O)[C@@H]21 [Dox, doxycycline], the “cell population expressing cTnT” value ([1]; +Dox/-Dox, pooled aggregates, 2 days in cardiac cultures) is reported as “greater than 60%”, the “aggregates containing contracting cells” value ([1]; Flk-1+ cells from day 4 EBs, Dox 24 hours) is reported as 25% and the “Ainv-Notch4 ES cells expressing Notch4 (HA expression)” value (Ainv-Notch4 ES cells) is reported as 90%. For the same compound, the “mixed colonies that generated contracting cells” value ([5]; Dox exposure limited to 24 hours, replated into cardiac cultures) was 45% and the “compact colonies that generated contracting cells” value ([5]; colonies formed in presence of Dox, picked at day 7, 2 to 7 days in cardiac cultures) was “Approximately 70%”.

From patent US20120149100A1, “CARDIOMYOCYTE CELL POPULATIONS” (Mount Sinai School of Medicine, priority 2005, published 2012)
